# Source: patent US9474277B2, “Pyrazole compound and pesticidal mixtures comprising a pyrazole compound” (BASF SE, priority 2012, dated 2016)
# Where two headings read alike, the source gives them in different places.
# What was measured:
# [1] = test system: Rice Plant Hopper (Nilaparvata lugens); test: B.7 Rice plant hopper test on sprayed rice seedlings; assay type: in vivo; details: 500 ppm, after 72 hours
# Description: B.7 Rice Plant Hopper (Nilaparvata lugens)
# (§1) Rice seedlings were cleaned and washed 24 hours before spraying. The active compounds were formulated in 50:50 acetone: water and 0.1% vol/vol surfactant (EL 620) was added. Potted rice seedlings were sprayed with 5 ml test solution, air dried, placed in cages and inoculated with 10 adults. Treated rice plants were kept at 28-29° C. and relative humidity of 50-60%. Percent mortality was recorded after 72 hours.
# [2] = test system: Rice Green Leafhopper (Nephotettix virescens); test: B.9 Rice green leafhopper test on sprayed rice seedlings; assay type: in vivo; details: 500 ppm, after 72 hours
# Description: B.9 Rice Green Leafhopper (Nephotettix virescens)
# as §1, with “water,” for “water”
# [3] = test system: Greenbug Aphid, Schizaphis graminum; test: Test 13 - Activity against greenbug aphid, wheat seed treatment; assay type: in vivo; details: single active, aphids counted 4 DAI
# Description: Test 13—Activity Against Greenbug Aphid, Schizaphis graminum: Wheat seed treatment
# Technical material was dissolved in acetone at sub-lethal doses. 50 μL of solution was added to a 20-ml scintillation vial, 15 wheat seeds were added, and the seeds were coated by vortexing the vial for 1 minute. The seeds were allowed to dry and planted later the same day. Seeds were planted individually in a moistened, fertilized soil mixture of 1:1 North Carolina loamy sand (Sandhill soil):play sand in 40.32 cm^2 pots. Pots were arranged in a randomized complete block design in the greenhouse and top-watered daily. Plant emergence and shoot phytotoxicity were evaluated 4, 7, and 14 days after treatment (DAT). At 14 DAT (true leaf stage), each plant was infested with 10 greenbug aphids (Schizaphis graminum) of mixed stages. Plants were maintained on light carts in a randomized complete block design and bottom-watered as needed. Twelve replicates (pots) were prepared for plant emergence and five replicates were prepared for infestation. Live aphids were counted 4 DAI and the mean percent population reduction relative to the solvent blank control was calculated.
# Rhizoctonia solani = test: Test 10 - Control of Rhizoctonia solani, corn seed treatment, plant height; assay type: in vivo; details: single active compound, 14 days
# Description: Test 10—Control of Rhizoctonia solani
# The compounds were dissolved in Acetone. Seeds of com were treated in a treater as standard equipment. The products and concentrations are listed below. After the treatment the seeds were sown in pots, and rye seeds (infected with Rhizoctonia solani) were placed next to the seeds (1 seed per corn seed).
# After cultivation in the greenhouse for 14 days at 20° C. and a relative humidity of 70% the plant height of the plants were measured.
# Altemaria solani = details: single active compound, 7 days after inoculation
# [4] = test system: Blumeria graminis f. sp. tritici; test: Test 12 - Control of powdery mildew on wheat, seed treatment; assay type: in vivo; details: single active, untreated 82% disease
# Description: Test 12—Control of Powdery Mildew on Wheat Caused by Blumeria graminis f. sp. tritici
# Seeds of wheat were treated in a treater as standard equipment. The products and concentrations are listed below. At the same day the plants were seeded in pots. 14 days later at 19° C. and 70% humidity the plants were inoculated with spores of Blumeria graminis f. sp. tritici (=syn. Erysiphe garminis f. sp. tritici) by shaking heavily infestated stock plants over the treated pots. After cultivation in the greenhouse for 7 days at 22-26° C. and a relative humidity between 60 to 90% the extent of fungal attack on the leaves was visually assessed as % diseased leaf area.
# Puccinia recondita = test: Test 11 - Control of brown rust on wheat, seed treatment; assay type: in vivo; details: single active, untreated 90% disease
# Description: Test 11—Control of Brown Rust on Wheat Caused by Puadnia recondita
# Seeds of wheat were treated in a treater as standard equipment. The products and concentrations are listed below. At the same day the plants were seeded in pots. 14 days later at 19° C. and 70% humidity the plants were inoculated with spores of Puccinia recondita. To ensure the success the artificial inoculation, the plants were transferred to a humid chamber without light and a relative humidity of 95 to 99% and 20 to 24° C. for 24 h. Then the trial plants were cultivated for 6 days in a greenhouse chamber at 20-24° C. and a relative humidity between 65 and 70%. The extent of fungal attack on the leaves was visually assessed as % diseased leaf area.
compound,measurement,setting,value
CCN(C(=O)c1cnn(C2CC3(C2)OCCO3)c1C)c1ccnnc1 [Compound C-15],mortality in comparison with untreated controls,[1],75%
CCN(C(=O)c1cnn(C(C)C2CC23CC3)c1C)c1ccnnc1 (stereo not shown) [Compound C-26],mortality in comparison with untreated controls,[2],at least 75%
CCN(C(=O)c1cnn(C(C)C(C)C)c1C)c1ccnnc1 (stereo not shown) [Compound I-674],Observed efficacy (%),"[3]; table with fungicides F.1 to F.11, 33.7 g a.i./100 kg seeds",21%
same,Observed efficacy (%),"[3]; table with insecticides A.1 to A.17, 33.7 g a.i./100 kg seeds",28%
same,Observed efficacy (%),Rhizoctonia solani; 63 g a.i./100 kg seeds,5%
same,Observed efficacy,Altemaria solani; 63 ppm,1%
same,Observed efficacy (%),[4]; 4 g a.i./100 kg seeds,9%
same,Observed efficacy (%),[4]; 250 g a.i./100 kg seeds,21%
same,Observed efficacy (%),Puccinia recondita; 250 g a.i./100 kg seeds,0%
CCN(C(=O)c1cnn(C(C)C(F)F)c1C)c1ccnnc1 (stereo not shown) [Compound I-680],Observed efficacy (%),"[3]; table with fungicides F.1 to F.11, 2.9 g a.i./100 kg seeds",7%
same,Observed efficacy (%),"[3]; table with insecticides A.1 to A.17, 2.9 g a.i./100 kg seeds",23%
same,Observed efficacy (%),Rhizoctonia solani; 63 g a.i./100 kg seeds,0%
same,Observed efficacy,Altemaria solani; 63 ppm,3%
same,Observed efficacy (%),[4]; 250 g a.i./100 kg seeds,15%
same,Observed efficacy (%),Puccinia recondita; 250 g a.i./100 kg seeds,0%
CCN(C(=O)c1cnn(C(C)C2(C#N)CC2)c1C)c1ccnnc1 (stereo not shown) [Compound I-698],Observed efficacy (%),"[3]; table with fungicides F.1 to F.11, 150 g a.i./100 kg seeds",51%
same,Observed efficacy (%),"[3]; table with insecticides A.1 to A.17, 150 g a.i./100 kg seeds",74%
same,Observed efficacy (%),Rhizoctonia solani; 250 g a.i./100 kg seeds,3%
same,Observed efficacy,Altemaria solani; 1 ppm,7%
same,Observed efficacy,Altemaria solani; 63 ppm,3%
same,Observed efficacy (%),[4]; 250 g a.i./100 kg seeds,15%
same,Observed efficacy (%),Puccinia recondita; 63 g a.i./100 kg seeds,4%
"N#Cc1c[nH]cc1-c1cccc2c1OC(F)(F)O2 [Fludioxonil, 4-(2,2-difluorobenzo[1,3]dioxol-4-yl)-1H-pyrrole-3-carbonitrile, reference compound]",Observed efficacy,Altemaria solani; 0.063 ppm,26%
"Cn1cc(C(=O)Nc2ccccc2-c2cc(F)c(F)c(F)c2)c(C(F)F)n1 [Fluxapyroxad, reference compound]",Observed efficacy (%),"[3]; table with fungicides F.1 to F.11, 20 g a.i./100 kg seeds",0%
same,Observed efficacy (%),Rhizoctonia solani; 4 g a.i./100 kg seeds,74%
same,Observed efficacy (%),Puccinia recondita; 1 g a.i./100 kg seeds,16%
"COCC(=O)N(c1c(C)cccc1C)[C@H](C)C(=O)OC [Mefenoxam, reference compound]",Observed efficacy (%),"[3]; table with fungicides F.1 to F.11, 15 g a.i./100 kg seeds",6%
same,Observed efficacy (%),Rhizoctonia solani; 63 g a.i./100 kg seeds,0%
same,Observed efficacy (%),[4]; 4 g a.i./100 kg seeds,0%
"COC(=O)N(OC)c1ccccc1COc1ccn(-c2ccc(Cl)cc2)n1 [Pyraclostrobin, methyl N-{2-[1-(4-chlorophenyl)-1H-pyrazol-3-yloxymethyl]phenyl}(N-methoxy)carbamate, reference compound]",Observed efficacy (%),Rhizoctonia solani; 63 g a.i./100 kg seeds,49%
same,Observed efficacy,Altemaria solani; 0.016 ppm,16%
c1ccc2[nH]c(-c3cscn3)nc2c1 [Thiabendazol],Observed efficacy (%),[4]; 250 g a.i./100 kg seeds,2%
"CC1(C)CC/C(=C\c2ccc(Cl)cc2)C1(O)Cn1cncn1 (stereo not shown) [Triticonazol, (5E)-5-[(4-chlorophenyl)methylene]-2,2-dimethyl-1-(1H-1,2,4-triazol-1-ylmethyl)cyclopentanol, reference compound]",Observed efficacy (%),Rhizoctonia solani; 16 g a.i./100 kg seeds,20%
same,Observed efficacy,Altemaria solani; 0.063 ppm,27%
same,Observed efficacy (%),[4]; 16 g a.i./100 kg seeds,60%
same,Observed efficacy (%),Puccinia recondita; 16 g a.i./100 kg seeds,49%
CNC(=O)c1cc(Cl)cc(C)c1NC(=O)c1cc(Br)nn1-c1ncccc1Cl [chloranthraniliprole],Observed efficacy (%),"[3]; table with insecticides A.1 to A.17, 75 g a.i./100 kg seeds",30%
